# Reference: patent US6015877A, “Compounds for inhibition of proteolysis” (President and Fellows of Harvard College, priority 1996, dated 2000)
# Values joined by “and” are separate entries in the source; they are usually repeats but may differ in a detail not shown here. Equal values may be shown once. “Also recorded” adds a separate entry of the source. Read-outs that look alike come from different tables or passages of the source. *1 amine or outer side, *2 acyl side, *3 side chain or, on linkers, in order; H or OH if unused. Where a SMILES comes first, the peptide text is derived from it. Where no end group is shown, it is not given here. [ ]: non-standard residue; d: D form. The star is where a group is joined. Farnesyl = CC(C)=CCC/C(C)=C/CC/C(C)=C/C*; CO = O=C([*:1])[*:2]
# Tests used:
# [1] = system: isoprenylated protein endoprotease; test: Inhibition of the solubilized / partially purified enzyme by non-halomethyl ketone inhibitors; assay type: biochemical, bovine
# [2] = system: isoprenylated protein endoprotease; test: Inhibition of the isoprenylated protein endoprotease by halomethyl ketones (preincubation, 20-fold dilution, Kitz-Wilson); assay type: biochemical, bovine; conditions: for enzyme activity (%): diluted 20-fold, control 100; for inhibition / inactivation of the endoprotease (in words): solubilized endoprotease
# Procedure: A typical procedure of inhibition is given here to illustrate the details of this procedure. A CHAPSO-solubilized protein preparation (2.5 mg/mL) or a partially […] protein preparation (0.17 mg/mL) was incubated with chloromethyl ketone inhibitors at 37° C. for 30 minutes. Aliquots were removed at timed intervals and diluted with assay buffer E for the solubilized preparation of with assay buffer D for the partially purified protein preparation in 20-fold. The final protein and substrate concentrations were 0.12 mg/mL (or 8.5 μg of partially purified protein preparation per milliliter) and 2.0 μM, respectively, except as otherwise noted; the residual enzyme activity was assayed as described above. TPCK and BFC-CMK were characterized by kinetic measurements. The bimolecular rate constant Kinh /K1 and pseudo-first-order kinetic rate constant Kinh were obtained using the Kitz-Wilson method (Kitz & Wilson, 1962). According to Kitz-Wilson method, the irreversible modification of an enzyme by an active-site directed inhibitor is given by [drawing 9] where K1 =[E]·[I]/[E·I] and -d([E]+[E·I])/dt=Kinh [E·I]. [I] and [E] are inhibitor and enzyme concentrations at a certain time, respectively. Under conditions here [I]>>[Eo ], which is the enzyme concentration at time zero, [I] is constant. Under conditions where the enzyme-inhibitor solution is extensively diluted before the assay, a simplified equation 2 can be obtained as follows: […]
# To further establish the specificity of the inactivation process, several commercially available haloketones were studies as putative inactivators of the endoprotease. The structures of these analogs are shown and their activities are shown in Table V. In these studies, the solubilized protein material was preincubated with a chloromethyl ketone inhibitor at 284 μM (unless otherwise noted) for 30 minutes; then 2.5-μL aliquots of the incubated solution were taken and diluted 20-fold for assay of the residual enzyme activity. […] Save for the dipeptide derivatives (ZGGFCMK and ZAPFCMK) derived from TPCK, the other halomethyl ketones tested are virtually inert.
# FIG. 16(A) Time-dependent inhibition. 16B Kitz-Wilson plot (the upper panel) for the inhibition of the isoprenylated protein endoprotease by TPCK. The inhibition studies were carried out at 37° C. using the solubilized endoprotease preparation. Aliquote of the inhibitor-enzyme solution were taken at interval times and diluted by a factor of 20, and the enzyme activity was assayed as described in Methods. (B) (the lower panel) the concentration-dependent inhibition of the endoprotease by TPCK. The inhibition studies were carried out at 37° C. The crude CHAPSO-solubilized endoprotease preparations (0.12 mg/mL) were preincubated for 60 min in 50 μL of buffer E in the presence of 284 μM TPCK or TLCK with 6% DMSO and 2% 2-propanol. After the incubation, the reaction solution was diluted by a factor of 20, and the remaining enzyme activity of the inhibitor-enzyme solution was assayed as described in Methods. Data were represented in mean from duplicate runs.
# [3] = system: membrane-bound isoprenylated protein endoprotease; conditions: cited from earlier work
# [4] = system: protease of bovine liver microsomal membranes (isoprenylated protein endoprotease); test: Proteolysis of N-[3H]acetyl isoprenylated peptide substrates by calf liver microsomal membranes (N-[3H]-AFC formation, HPLC); conditions: for activity as substrate (Table 1, words): 10 mM, prolonged incubation time (16 hours), detection limit 1.13 pmol/min/mg
# [5] = target: T1, cysteine protease apopain (Homo sapiens, UniProt P42574); conditions: cited from earlier work
# T1 sequence (P42574 29-175 limits assumed): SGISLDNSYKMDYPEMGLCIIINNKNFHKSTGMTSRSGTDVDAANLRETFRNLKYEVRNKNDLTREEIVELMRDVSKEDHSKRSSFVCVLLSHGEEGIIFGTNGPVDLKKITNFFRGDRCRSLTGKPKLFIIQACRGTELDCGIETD
# T1 sequence (P42574 176-277 limits assumed): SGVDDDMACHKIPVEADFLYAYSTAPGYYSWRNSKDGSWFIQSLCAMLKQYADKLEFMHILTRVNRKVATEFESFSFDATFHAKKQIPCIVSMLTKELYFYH
# [6] = target: T2, cysteine protease ICE (interleukin-1β converting enzyme) (Homo sapiens, UniProt P29466); conditions: cited from earlier work
# T2 sequence (P29466 120-297 limits assumed): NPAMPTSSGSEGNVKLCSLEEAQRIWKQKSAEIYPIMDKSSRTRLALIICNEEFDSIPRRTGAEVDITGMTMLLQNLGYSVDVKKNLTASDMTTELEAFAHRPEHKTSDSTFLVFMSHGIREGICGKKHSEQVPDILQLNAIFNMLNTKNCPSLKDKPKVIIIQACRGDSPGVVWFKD
# T2 sequence (P29466 317-404 limits assumed): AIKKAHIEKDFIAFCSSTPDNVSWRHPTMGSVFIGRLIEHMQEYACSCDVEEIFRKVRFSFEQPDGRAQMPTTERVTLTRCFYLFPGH
# [7] = 284 μM inhibitor, solubilized protein preincubated 30 minutes
# [8] = Kitz-Wilson plot using the partially purified enzyme preparation
# [9] = calf liver microsomal membranes
# [10] = Table 1, same enzyme preparation, average of two determinations ±S.D.
compound,measurement,setting,value
"O[C@H](CS)[C@H](O)CS (racemic) [DTT, Dithiothreitol]",effect on the solubilized enzyme's activity (in words),[1]; 1-5 mM,Neither DTT (1-5 mM) nor glycerol (20%) affects the enzyme's activity
same,enzyme activity (%) detergent extract,"[1]; inhibitor 5 mM, control 100",108 ± 8%
"CC(C)=CCC/C(C)=C/CC/C(C)=C/CSC[C@H](NC(=O)OC(C)(C)C)C(=O)CCl (stereo in doubt) [BFCCMK, N-Boc-S-all-trans-Farnesyl-L-cysteine Chloromethyl Ketone]",enzyme activity (%),[2]; [7],27 ± 2%
same,Kinh (s^-1),[2]; [8],(5.9 ± 0.4) × 10^-3 s^-1
same,Kinh /K1,[2]; [8],19.4 M⁻¹ s⁻¹ and 19.4 ± 1 M⁻¹ s⁻¹
same,Ki,"[2]; Kitz-Wilson plot using the partially purified enzyme preparation, read-out: K1",30 µM and ~30 µM
same,increase of the second-order rate constant,[2]; compared with TPCK,15 fold
same,inhibition / inactivation of the endoprotease (in words),[2],good inhibitors; also recorded: quite a potent inactivator of the endoprotease; also recorded: most potent inactivator of the endoprotease; also recorded: much more potent inactivator of the endoprotease than TPCK
CC(C)=CCC/C(C)=C/CC/C(C)=C/CSC[C@@H](C=O)NC(=O)OC(C)(C)C (stereo in doubt) [N-Boc-S-all-trans-farnesyl-L-cysteine Aldehyde],inhibition of the enzyme (in words),"[3]; Ma et al., 1993",fairly potent competitive inhibitor
CC(=O)N[C@@H](CSC/C=C(\C)CC/C=C(\C)CCC=C(C)C)C(N)=O [AFC amide],substrate activity (in words),[4]; [9],not a substrate for the enzyme
"N=C(N)c1ccc(CS(=O)(=O)F)cc1 [APMSF, 4-(amidinophe-nyl)methanesulfonyl fluoride]",inhibition of the endoprotease (in words),[3],not inhibited
CC(C)C[C@H](NC(=O)[C@@H](NC(=O)N[C@@H](Cc1ccccc1)C(=O)O)[C@@H]1CCN=C(N)N1)C(=O)N[C@H](C=O)Cc1ccccc1 [Chymostatin],inhibition of the endoprotease (in words),[1]; 0.33 mM,not inhibited
same,enzyme activity (%) detergent extract,"[1]; inhibitor 0.33 mM, control 100",104 ± 8%
same,enzyme activity (%) partially purified,"[1]; inhibitor 0.33 mM, control 100",99 ± 1%
same,enzyme activity (%) partially purified,"[1]; inhibitor 0.33 mM, control 100, listed as chymostatin",not inhibited
CCN1C(=O)C=CC1=O [N-ethylma-leimide],inhibition of apopain (in words),[5],inhibited
"O=C(O)c1cc[c]([Hg][Cl])cc1 [PCMB, p-chloromercuribenzoate]",inhibition of ICE (in words),[6],inactivated
same,partially purified enzyme activity inhibited,"[1]; 5 μM, partially purified enzyme",67%
same,enzyme activity (%) detergent extract,"[1]; 0.5 mM PCMB, then +5 mM DTT (regenerated activity)",44 ± 4% and 44%
same,regeneration of the inhibited activity after extensive dialysis and dilution (in words),[1]; detergent extract inhibited by 0.5 mM PCMB,no regeneration of the inhibited activity was observed
same,enzyme activity (%) partially purified,"[1]; inhibitor 5 μm, control 100",33 ± 3%
same,inhibition of the endoprotease,"[3]; 0.5 mM, membrane-bound enzyme",41%
"O=S(=O)(F)Cc1ccccc1 [PMSF, phenylmethanesulfonyl fluoride]",inhibition of the endoprotease (in words),[1]; 1 mM,not inhibited
same,enzyme activity (%) detergent extract,"[1]; inhibitor 1 mM, control 100",93 ± 3%
CC(C)[C@H](NC(=O)[C@H](CCCNC(=N)N)NC(=O)N[C@@H](Cc1ccccc1)C(=O)O)C(=O)N[C@H](C=O)CCCNC(=N)N [antipain] ({Phe-CO}-Arg-Val-Arg-aldehyde),inhibition of ICE (in words),[6],insensitive
OCC(O)CO [glycerol],effect on the solubilized enzyme's activity (in words),[1]; 20%,Neither DTT (1-5 mM) nor glycerol (20%) affects the enzyme's activity
CC(=O)N[C@@H](CC(C)C)C(=O)N[C@@H](CC(C)C)C(=O)N[C@H](C=O)CCCNC(=N)N [leupeptin],inhibition of the endoprotease (in words),[3]; 1.0 μM,not inhibited
N-Ac-S-all-trans-farnesyl-D-Cys-L-Val-L-Ile [AFC--Val--Ile (6)],"activity as substrate (Table 1, words)",[4],inactive
N-Benzyloxycarbonylglycylglycyl-S-all-trans-farnesyl-L-cysteine Chloromethyl Ketone [ZGGFCCMK],enzyme activity (%),[2]; [7],44 ± 1%
same,inhibition / inactivation of the endoprotease (in words),[2],good inhibitors
N-[^3 H-Acetyl-S-all-trans-geranylgeranyl-L-Cys-L-Val-L-ile [AGGC--Val--Ile (2)],Km,[4]; [10],4.01 ± 0.4 µM
same,Vmax,[4]; [10],26.20 ± 0.97 pmol/min/mg
same,Km,[4]; [9],14.6 µM
same,Vmax,[4]; [9],19.35 pmol/min/mg
same,substrate activity (in words),[4]; [9],good substrates
N-[^3 H]-Acetyl-L-Cys-L-Val-L-Ile [Cys--Val--Ile (4)],"activity as substrate (Table 1, words)",[4],inactive
same,substrate activity (in words),[4]; [9],Neither analog was measurably processed
N-[^3 H]-Acetyl-S-all-trans-geranylgeranyl-D-cys-L-Val-L-Ile [AGGC--Val--Ile (2) D--L--L],"activity as substrate (Table 1, words)",[4],inactive
same,substrate activity (in words),[4]; [9],no measurable protease activity
N-[^3 H]-Acetyl-S-thio-t-butyl-L-Cys-L-Val-L-Ile [t-butylthio-Cys--Val--Ile (5)],"activity as substrate (Table 1, words)",[4],inactive
same,substrate activity (in words),[4]; [9],Neither analog was measurably processed
N-[^3 H]-acetyl-S-all-trans-farnesyl-L-Cys-L-Val-D-Ile [AFC--Val--Ile (8)],"activity as substrate (Table 1, words)",[4],inactive
same,substrate activity (in words),[4]; [9],did not have substrate activity
N-[^3 H]-acetyl-S-all-trans-farnesyl-L-Cys-L-Val-L-Ile-D-Met ({(3H)‑acetyl}-C(Farnesyl)VI[dM]) [AFC--Val--Ile--Met (10)],"activity as substrate (Table 1, words)",[4],"weakly active (detectable activity is observed under prolonged incubation periods, but the activity is <5% that observed with AFC-V-I-S)"
same,substrate activity (in words),[4]; [9],processed to some extent
N-acetyl-S-all-trans-farnesyl-D-Cys-D-Val-L-Ile [D-D-L],substrate activity (in words),[4]; [9],inactive
N-acetyl-S-all-trans-farnesyl-L-Cys-D-Val-L-Ile [AFC--Val--Ile (7)],"activity as substrate (Table 1, words)",[4],inactive
same,substrate activity (in words),[4]; [9],did not have substrate activity
N-acetyl-S-trans-geranyl-D-Cys-L-Val-Ile [AGC--Val--Ile (3) D--L--L],"activity as substrate (Table 1, words)",[4],inactive
same,substrate activity (in words),[4]; [9],no measurable protease activity
N-acetyl-S-trans-geranyl-L-Cys-L-Val-L-Ile [AGC--Val--Ile (3)],Km,[4]; [10],14.6 ± 2.14 µM
same,Vmax,[4]; [10],19.35 ± 1.12 pmol/min/mg
same,substrate activity (in words),[4]; [9],good substrates
Nα-tosyl-L-lysine chloromethyl ketone [TLCK],enzyme activity (%),"[2]; 1000 μM inhibitor, solubilized protein preincubated",94 ± 15%
same,inhibition / inactivation of the endoprotease (in words),[2],did not inhibit the enzyme activity; also recorded: does not inhibit the enzyme activity
same,inhibition of apopain (in words),[5],not
aprotinin,inhibition of the endoprotease (in words),[3]; 0.6 μM,not inhibited
bis(p-nitro-phenyl)phosphate [BNPP],inhibition of the endoprotease (in words),[1]; 1 mM,not inhibited
same,enzyme activity (%) detergent extract,"[1]; inhibitor 1 mM, control 100",100 ± 8%
β-(2-naphthyl)-L-alanine chloromethyl ketone [2-Nal-Ala-CMK],enzyme activity (%),[2]; [7],53 ± 1%
same,inhibition / inactivation of the endoprotease (in words),[2],inhibit the endoprotease well
